Measurements published in patent publication US8168821B2, “Cyclopropylacetic acid derivatives and use thereof” (Bayer Pharma Aktiengesellschaft, priority 2005, dated 2012).
Each block holds one compound with its values, some of them ahead of it.

Assays:
saphenous artery rings = experiment: Vasorelaxant effect in vitro (phenylephrine-contracted artery rings); parameters: species or system Rabbits; details: rabbit saphenous artery rings, contraction induced by phenylephrine, concentration reducing contraction by 50%
Experimental: Rabbits are anesthetized and sacrificed by intravenous injection of thiopental sodium (about 50 mg/kg) and exsanguinated. The saphenous artery is removed and divided into rings 3 mm wide. The rings are mounted singly on in each case a pair of triangular hooks open at the end and made of 0.3 mm-thick special wire (Remanium®). Each ring is placed under an initial tension in 5 ml organ baths with Krebs-Henseleit solution which is at 37° C., is gassed with carbogen and has the following composition: NaCl 119 mM; KCl 4.8 mM; CaCl2×2H2O 1 mM; MgSO4×7H2O 1.4 mM; KH2PO4 1.2 mM; NaHCO3 25 mM; glucose 10 mM; bovine serum albumin 0.001%. The force of contraction is detected with Statham UC2 cells, amplified and digitized via A/D converters (DAS-1802 HC, Keithley Instruments, Munich) and recorded in parallel on chart recorders. Contractions are induced by addition of phenylephrine.
After several (generally 4) control cycles, the substance to be investigated is added in each further run in increasing dosage, and the height of the contraction achieved under the influence of the test substance is compared with the height of the contraction reached in the last preceding run. The concentration necessary to reduce the contraction reached in the preceding control by 50% is calculated from this (IC50). The standard application volume is 5 μl. The proportion of DMSO in the bath solution corresponds to 0.1%.

[1] = target: T1, Heme-containing sGC (recombinant soluble guanylate cyclase) (Rattus norvegicus, UniProt P20595); experiment: Stimulation of recombinant soluble guanylate cyclase (sGC) in vitro, heme-containing enzyme; assay type: biochemical
T1 construct: made in house
T1 sequence (P20595 1-619): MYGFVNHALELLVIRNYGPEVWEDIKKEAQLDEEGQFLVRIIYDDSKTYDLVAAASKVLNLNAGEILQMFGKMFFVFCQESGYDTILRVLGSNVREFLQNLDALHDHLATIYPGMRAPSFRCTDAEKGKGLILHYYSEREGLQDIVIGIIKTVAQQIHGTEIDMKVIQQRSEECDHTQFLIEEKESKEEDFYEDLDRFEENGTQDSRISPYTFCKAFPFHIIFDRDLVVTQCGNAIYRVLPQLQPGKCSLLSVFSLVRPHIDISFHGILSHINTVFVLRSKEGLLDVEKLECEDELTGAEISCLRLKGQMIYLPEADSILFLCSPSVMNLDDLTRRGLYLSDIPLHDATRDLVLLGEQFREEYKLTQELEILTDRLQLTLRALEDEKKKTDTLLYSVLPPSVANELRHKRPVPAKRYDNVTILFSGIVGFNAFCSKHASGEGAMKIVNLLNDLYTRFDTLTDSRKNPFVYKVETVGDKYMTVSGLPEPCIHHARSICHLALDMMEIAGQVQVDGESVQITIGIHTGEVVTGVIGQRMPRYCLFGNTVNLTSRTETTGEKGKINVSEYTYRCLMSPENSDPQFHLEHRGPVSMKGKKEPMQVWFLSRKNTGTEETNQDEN
T1 sequence (P19686 1-690 partner): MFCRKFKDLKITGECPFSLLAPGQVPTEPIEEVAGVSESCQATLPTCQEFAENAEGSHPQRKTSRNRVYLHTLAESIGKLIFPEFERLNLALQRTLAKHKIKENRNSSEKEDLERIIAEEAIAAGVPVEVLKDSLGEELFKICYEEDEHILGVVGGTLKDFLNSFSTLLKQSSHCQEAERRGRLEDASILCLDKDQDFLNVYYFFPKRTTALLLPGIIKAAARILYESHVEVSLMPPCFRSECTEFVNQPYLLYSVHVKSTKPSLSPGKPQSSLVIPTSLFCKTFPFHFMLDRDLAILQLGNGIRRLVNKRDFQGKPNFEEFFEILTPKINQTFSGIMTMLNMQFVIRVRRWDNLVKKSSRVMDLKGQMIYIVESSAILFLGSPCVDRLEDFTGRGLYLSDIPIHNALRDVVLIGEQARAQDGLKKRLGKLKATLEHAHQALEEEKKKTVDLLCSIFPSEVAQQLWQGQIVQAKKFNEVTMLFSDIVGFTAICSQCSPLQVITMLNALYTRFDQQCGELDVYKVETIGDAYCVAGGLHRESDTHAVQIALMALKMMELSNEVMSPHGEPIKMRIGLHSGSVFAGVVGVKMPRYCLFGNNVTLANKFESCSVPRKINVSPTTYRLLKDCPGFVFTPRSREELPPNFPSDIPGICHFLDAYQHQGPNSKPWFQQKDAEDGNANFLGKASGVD
Text: Hoenicka, E. M. Becker, H. Apeler, T. Sirichoke, H. Schroeder, R. Gerzer and J.-P. Stasch, “Purified soluble guanylyl cyclase expressed in a baculovirus/Sf9 system: Stimulation by YC-1, nitric oxide, and carbon oxide”, J. Mol. Med. 77 (1999), 14-23. The heme-free guanylate cyclase is obtained by adding Tween 20 to the sample buffer (0.5% in the final concentration).
(§1) The activation of sGC by a test substance is reported as n-fold stimulation of the basal activity.

[2] = target: T2, Heme-free sGC (recombinant soluble guanylate cyclase) (Rattus norvegicus, UniProt P20595); experiment: Stimulation of recombinant soluble guanylate cyclase (sGC) in vitro, heme-free enzyme; assay type: biochemical; details: 10 μM Example 9; heme-free enzyme obtained with 0.5% Tween 20
T2 construct: made in house
T2 sequence (P20595 1-619): T1 sequence (P20595 1-619)
T2 sequence (P19686 1-690 partner): T1 sequence (P19686 1-690 partner)
Experimental: Investigations on the stimulation of recombinant soluble guanylate cyclase (sGC) by the compounds according to the invention with and without sodium nitroprusside, and with and without the heme-dependent sGC inhibitor 1H-1,2,4-oxadiazole-(4,3a)-quinoxalin-1-one (ODQ) are carried out by the method described in detail in the following reference: M. Hoenicka, E. M. Becker, H. Apeler, T. Sirichoke, H. Schroeder, R. Gerzer and J.-P. Stasch, “Purified soluble guanylyl cyclase expressed in a baculovirus/Sf9 system: Stimulation by YC-1, nitric oxide, and […]”, J. Mol. Med. 77 (1999), 14-23. The heme-free guanylate cyclase is obtained by adding Tween 20 to the sample buffer (0.5% in the final concentration).
as §1

IC50 (saphenous artery rings): 33 nM
Structure (SMILES): CC(C)(C)c1ccc(COc2ccccc2/C=C/C(CCC2(CC(=O)O)CC2)Cc2ccc(C(=O)O)cc2)cc1 (racemic) [Example 6, 4-((3E)-4-{2-[(4-tert-Butylbenzyl)oxy]phenyl}-2-{2-[1-(carboxymethyl)cyclopropyl]ethyl}but-3-en-1-yl)benzoic acid]

IC50 (saphenous artery rings; Oryctolagus cuniculus): 58 nM
Structure (SMILES): CC(C)(C)c1ccc(COc2ccccc2/C=C/C(CCC2(CC(=O)O)CC2)Cc2ccc(C(=O)O)cc2)cc1 (racemic) [Example 5]

IC50 (saphenous artery rings; Oryctolagus cuniculus): 2.9 nM
Structure (SMILES): CC(C)(C)c1ccc(COc2ccccc2/C=C/C(CCc2ccc(C(=O)O)cc2)CCC2(CC(=O)O)CC2)cc1 (racemic) [Example 2, 4-((4E)-5-{2-[(4-tert-Butylbenzyl)oxy]phenyl}-3-{2-[1-(carboxymethyl)cyclopropyl]ethyl}pent-4-en-1-yl)benzoic acid]

Structure (SMILES): CCN(CC)[N+]([O-])=NO [DEA/NO, 2-(N,N-diethylamino)diazenolate 2-oxide, reference compound]
Stimulation (n-fold) of heme-containing sGC by DEA/NO alone ([1]; 0.1 μM DEA/NO, 0.0 μM Example 9): 101.0 n-fold

IC50 (saphenous artery rings): 5.8 nM
Structure (SMILES): CC(C)(C)c1ccc(COc2ccccc2/C=C/C(CCc2ccc(C(=O)O)cc2)CCC2(CC(=O)O)CC2)cc1 (racemic) [Example 3, 4-((4E)-5-{2-[(4-tert-Butylbenzyl)oxy]phenyl}-3-{2-[1-(carboxymethyl)cyclopropyl]ethyl}pent-4-en-1-yl)benzoic acid]

Stimulation (n-fold) of heme-containing sGC with ODQ alone ([1]; 10 μM ODQ, 0.0 μM Example 9): 3.7 n-fold
Structure (SMILES): O=c1onc2cnc3ccccc3n12 [ODQ, 1H-1,2,4-oxadiazole-(4,3a)-quinoxalin-1-one, reference compound]

IC50 (saphenous artery rings): 1020 nM
Structure (SMILES): O=C(O)CC1(CCC(/C=C/c2ccccc2OCCCCCc2ccccc2)Cc2ccc(C(=O)O)cc2)CC1 (racemic) [Example 8, 4-((3E)-2-{2-[1-(Carboxymethyl)cyclopropyl]ethyl}-4-{2-[(5-phenylpentyl)oxy]phenyl}but-3-en-1-yl)benzoic acid]

IC50 (saphenous artery rings): 406 nM
Stimulation (n-fold) of heme-containing sGC, Basal ([1]; 10 μM Example 9, no addition): 8.0 n-fold
Stimulation (n-fold) of heme-containing sGC, +0.1 μM DEA/NO ([1]; 10 μM Example 9 plus 0.1 μM DEA/NO): 109.2 n-fold
Stimulation (n-fold) of heme-containing sGC, +10 μM ODQ ([1]; 10 μM Example 9 plus 10 μM ODQ): 41.0 n-fold
Synergism of combination with NO donor DEA/NO on heme-containing sGC ([1]; combination of Example 9 and DEA/NO): no synergistic effect
Effect of heme-dependent sGC inhibitor ODQ on sGC activation ([1]; with ODQ): not blocked
Stimulation (n-fold) of heme-free sGC, Basal [2]: 21.0 n-fold
Structure (SMILES): O=C(O)CC1(CCC(/C=C/c2ccccc2OCCCCCc2ccccc2)Cc2ccc(C(=O)O)cc2)CC1 (racemic) [Example 9, 4-((3E)-2-{2-[1-(Carboxymethyl)cyclopropyl]ethyl}-4-{2-[(5-phenylpentyl)oxy]phenyl}but-3-en-1-yl)benzoic acid]
